System: primary-culture hepatocytes
Assay: Leakage of GOT from primary-culture hepatocytes exposed to liver poison (Test Examples 1-4)
Type: cell-based, rat
Conditions: Liver poison alone, no addition of HGF (Carbon tetrachloride 5 mM; Mitomycin C 8 µM); culture for 24 hours; control 6.0 ± 0.4
Protocol: The primary culture was carried out as follows: Isolated hepatocytes were dispersed in William's medium (5% bovine serum, 10^-9 M insulin and 10^-9 M dexamethasone) and the cells were seeded in a 12-well plastic dish (Corning Co.) having the bottom coated with Type-I collagen. The culture medium was exchanged with the medium containing aprotinin at 0.5 µg/ml and without serum and hormones 2 hours later.
The protective effect of HGF on the hepatocytes was tested by the effect on the leakage to enzymes from the cytoplasm of the hepatocytes in the primary culture.
In order to mimick this phenomenon, hepatocyte primary-culture added with the liver poison was used. Thus the leakage of cytoplasmic enzymes such as GOT was measured in this culture system, and the protective activity on the hepatocytes by HGF was estimated along with measurement of the degree of inhibition of leakage of GOT or others. […]
The primary-culture hepatocytes described in Reference Example 3 were seeded at the surface density of 1.2 x 10^5 cells/cm^2 and on the next day, the medium was changed to one without serum, followed by the addition of HGF at 10 ng/ml and/or carbon tetrachloride at 5 mM. […] The GOT activity in the supernatant was measured by the conventional method. […]

## ClC(Cl)(Cl)Cl [Carbon tetrachloride]
  GOT activity: 12.7 ± 1.2 mU/ml
